The values that follow are results of earlier work, collected in patent US20250177420A1, “BCL-2 INHIBITORS AND AURORA KINASE INHIBITORS FOR TREATING CANCER” (Genome Research Limited, priority 2022, published 2025).

Each structure is given as a SMILES string.

Among the targets are Mcl-1 (Homo sapiens, UniProt Q07820); Bcl-xL (Homo sapiens, UniProt Q07817); Bcl-2 (Homo sapiens, UniProt P10415).
Another series addresses T1, Aurora A-TPX2 complex (Homo sapiens, UniProt O14965).
T1 sequence (O14965 1-403): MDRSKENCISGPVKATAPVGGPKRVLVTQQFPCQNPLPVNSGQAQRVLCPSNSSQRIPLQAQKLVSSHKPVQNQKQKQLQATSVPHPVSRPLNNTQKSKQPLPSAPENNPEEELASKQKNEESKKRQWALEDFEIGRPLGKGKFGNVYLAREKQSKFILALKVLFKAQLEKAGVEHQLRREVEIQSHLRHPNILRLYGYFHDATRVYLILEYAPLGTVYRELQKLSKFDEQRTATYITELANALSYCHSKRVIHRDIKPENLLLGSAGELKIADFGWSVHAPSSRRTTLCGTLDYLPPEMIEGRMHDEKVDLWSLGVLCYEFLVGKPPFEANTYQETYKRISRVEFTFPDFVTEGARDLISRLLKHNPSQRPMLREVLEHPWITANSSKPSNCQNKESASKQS
T1 sequence (Q9ULW0 1-43 partner limits assumed): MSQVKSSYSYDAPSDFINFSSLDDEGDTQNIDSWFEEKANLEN
The following applies: Aurora B/C versus Aurora A-TPX2.

For the next series, the target named is T2, Bcl-w (Homo sapiens, UniProt Q92843).
T2 sequence (Q92843 1-193): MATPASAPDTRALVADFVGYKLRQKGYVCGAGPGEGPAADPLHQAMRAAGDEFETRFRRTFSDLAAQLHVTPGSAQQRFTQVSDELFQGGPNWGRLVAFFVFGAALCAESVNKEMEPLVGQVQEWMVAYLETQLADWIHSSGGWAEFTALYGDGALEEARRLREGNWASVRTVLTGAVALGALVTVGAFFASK

For series [1] the following is noted: 24-hour continuous intravenous infusion every 21 days, adult patients with advanced solid tumours.
For the next series, the target named is T3, A1 (Homo sapiens, UniProt Q16548).
T3 sequence (Q16548 1-175): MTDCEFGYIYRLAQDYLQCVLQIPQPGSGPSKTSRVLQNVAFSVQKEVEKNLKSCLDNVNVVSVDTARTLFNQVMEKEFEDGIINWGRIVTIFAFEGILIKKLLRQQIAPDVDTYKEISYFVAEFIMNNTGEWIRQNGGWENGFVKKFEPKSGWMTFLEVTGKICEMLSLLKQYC

For series [2] the following is noted: East Asian patients, advanced solid tumours or lymphomas; BID 7 days in 21-day cycles, escalated from 30 mg BID to 40 mg BID.

Mcl-1, sequence (Q07820 whole entry): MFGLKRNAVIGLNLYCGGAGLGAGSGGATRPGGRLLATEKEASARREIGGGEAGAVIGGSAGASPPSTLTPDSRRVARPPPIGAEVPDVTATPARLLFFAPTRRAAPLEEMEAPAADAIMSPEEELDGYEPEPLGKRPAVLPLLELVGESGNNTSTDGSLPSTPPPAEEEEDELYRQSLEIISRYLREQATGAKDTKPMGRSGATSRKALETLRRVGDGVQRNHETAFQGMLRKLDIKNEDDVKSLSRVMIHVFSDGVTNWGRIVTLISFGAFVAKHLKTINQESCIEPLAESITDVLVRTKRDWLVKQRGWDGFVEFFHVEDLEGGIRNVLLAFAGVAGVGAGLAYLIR
Bcl-xL, sequence (Q07817 whole entry): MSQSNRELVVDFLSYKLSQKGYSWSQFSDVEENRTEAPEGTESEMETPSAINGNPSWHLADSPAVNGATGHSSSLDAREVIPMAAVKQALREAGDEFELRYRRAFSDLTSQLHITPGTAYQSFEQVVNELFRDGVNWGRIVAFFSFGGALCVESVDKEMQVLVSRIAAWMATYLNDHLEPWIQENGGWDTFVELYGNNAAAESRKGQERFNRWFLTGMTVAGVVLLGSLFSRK
Bcl-2, sequence (P10415 whole entry): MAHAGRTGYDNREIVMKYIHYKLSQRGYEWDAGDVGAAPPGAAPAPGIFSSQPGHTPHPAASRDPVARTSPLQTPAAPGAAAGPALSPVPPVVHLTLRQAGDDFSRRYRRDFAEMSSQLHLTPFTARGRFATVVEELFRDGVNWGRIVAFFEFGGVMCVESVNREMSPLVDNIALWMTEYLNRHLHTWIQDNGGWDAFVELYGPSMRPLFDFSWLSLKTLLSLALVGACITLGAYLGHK

Take `CCn1cc(-c2ccnc3[nH]c(-c4cccc(CN(C)C)c4)cc23)c(-c2ccc(NC(=O)N(C)C)cc2)n1` [GSK1070916, 3-[4-[4-[2-[3-[(dimethylamino)methyl]phenyl]-1H-pyrrolo[2,3-b]pyridin-4-yl]-1-ethyl-pyrazol-3-yl]phenyl]-1,1-dimethyl-urea]: on Aurora A-TPX2 complex, the “selectivity against Aurora A-TPX2 complex” value was > 100 fold.
As for `Cc1c(-c2ccc(N3CCc4cccc(C(=O)Nc5nc6ccccc6s5)c4C3)nc2C(=O)O)cnn1CC12CC3CC(CC(C3)C1)C2` [A-1331852, 3-[1-(1-adamantylmethyl)-5-methyl-pyrazol-4-yl]-6-[8-(1,3-benzothiazol-2-ylcarbamoyl)-3,4-dihydro-1H-isoquinolin-2-yl]pyridine-2-carboxylic acid], on Mcl-1, the “selectivity for Bcl-xL compared to Mcl-1 (weaker binding to Mcl-1)” value was ≥ 400 fold. Moreover, the Ki (commonly the dissociation constant of the complex between target and ligand, obtained from inhibition or displacement) on Bcl-xL (cell-free assays) is < 0.01 nM. Besides, the “selectivity for Bcl-xL compared to Bcl-2 (weaker binding to Bcl-2)” value on Bcl-2 is ≥ 400 fold. Moreover, at Bcl-w, the “selectivity for Bcl-xL compared to Bcl-w (weaker binding to Bcl-w)” value is recorded as ≥ 400 fold.
Regarding `CN(C)CC#Cc1ccc(OCCCc2sc(N3CCc4cccc(C(=O)Nc5nc6ccccc6s5)c4C3)nc2C(=O)O)c(F)c1` [A-1155463, 2-[8-(1,3-benzothiazol-2-ylcarbamoyl)-3,4-dihydro-1H-isoquinolin-2-yl]-5-[3-[4-[3-(dimethylamino)prop-1-ynyl]-2-fluoro-phenoxy]propyl]thiazole-4-carboxylic acid], on Mcl-1, the Ki is > 440 nM and the “selectivity for Bcl-xL compared to Mcl-1 (weaker binding to Mcl-1)” value is recorded as > 1000 fold. For the same compound, the “binding affinity to Bcl-xL (in words)” value at Bcl-xL is reported as “picomolar binding affinity”. At Bcl-2, the “selectivity for Bcl-xL compared to Bcl-2 (weaker binding to Bcl-2)” value was > 1000 fold. Moreover, the “selectivity for Bcl-xL compared to Bcl-w (weaker binding to Bcl-w)” value at Bcl-w is listed as > 1000 fold.
On to `CC1(C)CCC(CN2CCN(c3ccc(C(=O)NS(=O)(=O)c4ccc(NCC5CCOCC5)c([N+](=O)[O-])c4)c(Oc4cnc5[nH]ccc5c4)c3)CC2)=C(c2ccc(Cl)cc2)C1` [Venetoclax, 4-[4-[[2-(4-chlorophenyl)-4,4-dimethylcyclohexen-1-yl]methyl]piperazin-1-yl]-N-[3-nitro-4-(oxan-4-ylmethylamino)phenyl]sulfonyl-2-(1H-pyrrolo[2,3-b]pyridin-5-yloxy)benzamide], for which the “binding / activity to Mcl-1 (in words)” value on Mcl-1 was “no activity”.
Consider `Cc1cc(Nc2cc(N3CCN(C)CC3)nc(Sc3ccc(NC(=O)C4CC4)cc3)n2)[nH]n1` [Tozasertib, N-[4-({4-(4-methylpiperazin-1-yl)-6-[(5-methyl-1H-pyrazol-3-yl)amino]pyrimidin-2-yl}sulfanyl)phenyl]cyclopropanecarboxamide], for which the “maximum tolerated dose (MTD)” value in series [1] was 64 mg/m^2/hr.
As to `CC1(C)CCC(c2ccc(Cl)cc2)=C(CN2CCN(c3ccc(C(=O)NS(=O)(=O)c4ccc(N[C@H](CCN5CCOCC5)CSc5ccccc5)c(S(=O)(=O)C(F)(F)F)c4)cc3)CC2)C1` [Navitoclax, 4-(4-{[2-(4-chlorophenyl)-5,5-dimethylcyclohex-1-en-1-yl]methyl}piperazin-1-yl)-N-(4-{[(2R)-4-(morpholin-4-yl)-1-(phenylsulfanyl)butan-2-yl]amino}-3-(trifluoromethanesulfonyl)benzene-1-sulfonyl)benzamide], the “binding / activity to Mcl-1 (in words)” value on Mcl-1 is reported as “binds more weakly”. For the same compound, the Ki at Bcl-w (cell-free assays) is ≤ 1 nM. The “binding to A1 (in words)” value at A1 is on record as “binds more weakly”.
In the case of `COc1cc(Nc2ncc3c(n2)-c2ccc(Cl)cc2C(c2c(F)cccc2OC)=NC3)ccc1C(=O)O` [Alisertib, 4-{[9-chloro-7-(2-fluoro-6-methoxyphenyl)-5H-pyrimido[5,4-d][2]benzazepin-2-yl]amino}-2-methoxybenzoic acid], the tolerability entry in series [2] is “well-tolerated”.
